Data published in patent US10342697B2, “Systems and methods for delivering drugs to an eye” (Avedro, Inc., priority 2016, dated 2019).
“Also recorded” adds a separate entry of the source.

Experiments:
epithelium = experiment: Corrosiveness/damage to the epithelium; settings: compared with BAC
[1] = tested on: pig eyes with intact epithelium; experiment: Relative fluorescence F/Fo of cross-linked corneal flaps, Polidocanol vs BAC riboflavin solutions (Study 4); settings: 20 min soak, 30 mW/cm^2, FIGS. 7-15
Description: The epitheliums of eyes in Group A were removed with a dull blade after the eyes were soaked in one of the solutions and irradiated pan-corneally on air with a top hat beam (3% root mean square) for 4 minutes with 365-nm light source (UV LED NCSU033B[T]; Nichia Co., Tokushima, Japan) at a chosen irradiance of 30 mW/cm^2 which was measured with a power sensor (model PD-300-UV; Ophir, Inc., Jerusalem, Israel) at the corneal surface. Corneal flaps (approximately 200 μm thick) were excised from the eyes with aid of an Intralase femtosecond laser (Abbot Medical Optics, Santa Ana, Calif.). The average thickness of the corneal flaps was calculated as a difference between the measurements before and after the excision from the eyes with an ultrasonic Pachymeter (DGH Technology, Exton, Pa.). The flaps were washed with distilled water and dried in a vacuum until the weight change became less than 10% (Rotary vane vacuum pump RV3 A652-01-903, BOC Edwards, West Sussex, UK). […] Papain digests were diluted 0.5 times with 1×BBBS and fluorescence of the solutions was measured with excitation of 360 nm in a QM-40 Spectrofluorometer (Photon Technology Int., London, Ontario, Canada). The fluorescence of the papain buffer was taken into account by measuring fluorescence in the absence of tissue and subtracting this value from the fluorescence of the samples. […]

With “Polyoxyethylene (9) lauryl ether [Polidocanol]” the “corrosive and damaging to the epithelium” value (epithelium) was “less corrosive and damaging to the epithelium than BAC” and the “enhancing permeability in the epithelium and generating cross-linking activity” value [1] was “more effective than many other surfactants; also recorded: far more effective and efficient than BAC”.
